{"source": "patent US20200147117A1", "about": "“COMBINATION CANCER THERAPY” (BIOSIGHT LTD., priority 2017, published 2020)", "key": {"[1]": {"test_system": "U937 human hematological cancer cells", "experiment": "Proliferation and survival of U937 cells, PI staining / FACS, 72 hours", "format": "cell-based", "method": "U937 human hematological cancer cells were cultured in RPMI supplemented with 10% FCS. […] Azacitidine (AZA) was added to the cell cultures at 5 different concentrations: 0, 100, 250, 1000, 5000 nM. […] All groups were analyzed in triplicates. […] The percentage of inhibition was calculated."}, "[2]": {"test_system": "Molt-4 human leukemia cell line", "experiment": "Molt-4 cell proliferation, MTT assay, 72 hr", "format": "cell-based", "method": "Molt-4 human leukemia cell line was obtained from ATCC. The cells were grown in RPMI medium containing 10% FBS and 1% glutamine Cells were seeded in 96-well plates, 50,000 cells/ml, 0.2 ml per well. Test substances were diluted in PBS and added in final concentrations of 0.1 nM to 10 μM, in a volume of 20 μl. The study was conducted in triplicates. PBS was used as a control. Plates were incubated for 72 hr at 37° C. with 5% CO2. At the end of the treatment period, a MTT assay using the MTT reagent [3-(4,5-dimethylthiazol-2-yl)-2,5-diphenyltetrazolium bromide] was performed. MTT was added to each well at a concentration of 5 mg/ml in a volume of 0.02 ml. Plates were incubated at 37° C. for 3 hours. The plates were centrifuged at 3500 rpm for 5 minutes and the supernatant was aspirated. The pellets which contained MTT crystals were each dissolved in 0.2 ml DMSO. Absorbance was determined using ELISA reader at a wavelength of 570 nm."}, "U937 leukemia cells": {"test_system": "U937 leukemia cells", "experiment": "Animal model of leukemia: NSG mice injected IV with U937 cells", "format": "in vivo, NOD scid gamma (NSG) mice", "settings": "for Spleen size / weight compared to the control mice: s.c. daily, FIG. 4", "method": "The effect of BST-236 in combination with azacytidine on the survival of U937 leukemia cells in vivo was next examined NOD scid gamma (NSG) mice were irradiated with 200 rad, 24 hours before injection with U937 cells. On Day 0, mice (4-5 animals per group), were injected intravenously (IV) with 7×10^6 U937 cells in a total volume of 200 μL PBS. On Days 16-22 (7 days, first study) or 13-18 (6 days, second study), mice were daily injected subcutaneously (s.c.) with BST-236 (5 mg/mouse; ˜250 mg/kg), azacytidine (designated AZA; 6 mg/kg), or BST-236 (5 mg/mouse; ˜250 mg/kg) and AZA (6 mg/kg). Twenty-four hours after the last injection, mice were sacrificed, and spleen, blood, and bone marrow were analyzed for mouse and human CD45^+ cells using fluorescence-activated cell sorting (FACS).\nGiven that finding, experiments will be performed using even lower doses of BST-236 to evaluate synergistic activity with, e.g., AZA. It is, for example, expected that 20 mg/kg BST-236 will be efficacious. Accordingly, in a particular embodiment, NSG mice will be dosed with 20 mg/kg BST-236 alone, 6 mg/kg AZA alone, or a combination of 20 mg/kg BST-236 and 6 mg/kg AZA to investigate synergistic activity with this dosing regimen. It is understood that synergistic activity may also be observed at lower doses of AZA in combination with 20 mg/kg BST-236."}, "U937 cells": {"test_system": "U937 cells", "experiment": "Activity of BST-236 on U937 cells, 48 hr, 10% FCS (Table 3)", "format": "cell-based, human"}, "Molt-4 cells": {"test_system": "Molt-4 cells", "experiment": "Activity of Asp-Cytarabine/BST-236 on Molt-4 cells, 48 hr, 10% FCS (Table 5)", "format": "cell-based, human"}, "[3]": {"experiment": "PK analysis from Phase I/II studies after infusion", "format": "in vivo", "text": "Accordingly, synergistic interactions may be observed within […] administration of BST-236."}, "[4]": {"settings": "BST-236 5 mg/mouse, AZA 6 mg/kg"}}, "note": "Like-named read-outs stand apart in the source and are kept apart here."}
{"smiles": "Nc1ncn([C@@H]2O[C@H](CO)[C@@H](O)[C@H]2O)c(=O)n1", "note": "[Azacitidine]", "values": [{"measurement": "% inhibition (growth inhibition of U937 cells)", "setting": "[1]; AZA 100 nM alone", "value": 1.68, "unit": "%"}, {"measurement": "% inhibition (growth inhibition of U937 cells)", "setting": "[1]; AZA 250 nM alone", "value": "−3.60", "unit": "%"}, {"measurement": "% inhibition (growth inhibition of U937 cells)", "setting": "[1]; AZA 1000 nM alone", "value": 0.60, "unit": "%"}, {"measurement": "% inhibition (growth inhibition of U937 cells)", "setting": "[1]; AZA 5000 nM alone", "value": 4.30, "unit": "%"}, {"measurement": "IC50", "setting": "[2]", "value": 2110, "unit": "nM"}, {"measurement": "Spleen size / weight compared to the control mice", "setting": "U937 leukemia cells; [4]", "value": "reduced spleen size"}, {"measurement": "Animals that died before the scheduled sacrifice", "setting": "U937 leukemia cells; first study, AZA 6 mg/kg s.c. daily Days 16-22, sacrifice on Day 23", "value": "1/4"}]}
{"smiles": "NC(CC(=O)Nc1ccn([C@@H]2O[C@H](CO)C(O)C2O)c(=O)n1)C(=O)O", "note": "(stereo partly shown) [Asp-Cytarabine]", "values": [{"measurement": "% inhibition (growth inhibition of U937 cells)", "setting": "[1]; BST236 250 nM alone", "value": 19.1, "unit": "%"}, {"measurement": "Activity on U937 cells (count)", "setting": "U937 cells; 1 nM, 48 hr, 10% FCS", "value": 16958}, {"measurement": "Activity on U937 cells (count)", "setting": "U937 cells; 10 nM, 48 hr, 10% FCS", "value": 16994}, {"measurement": "Activity on U937 cells (count)", "setting": "U937 cells; 50 nM, 48 hr, 10% FCS", "value": 15769.67}, {"measurement": "Activity on U937 cells (count)", "setting": "U937 cells; 100 nM, 48 hr, 10% FCS", "value": 15228.33333}, {"measurement": "Activity on U937 cells (count)", "setting": "U937 cells; 250 nM, 48 hr, 10% FCS", "value": 14819.67}, {"measurement": "Activity on U937 cells (count)", "setting": "U937 cells; 1000 nM, 48 hr, 10% FCS", "value": 6185.667}, {"measurement": "Activity on U937 cells (count)", "setting": "U937 cells; 5000 nM, 48 hr, 10% FCS", "value": 2116}, {"measurement": "inhibition at 0.001 µM", "setting": "U937 cells; Homo sapiens, U-937, 1 nM, 48 hr, 10% FCS, read-out: Activity on U937 cells (inhibition relative to 0)", "value": -2.27, "unit": "%"}, {"measurement": "inhibition at 0.01 µM", "setting": "U937 cells; Homo sapiens, U-937, 10 nM, 48 hr, 10% FCS, read-out: Activity on U937 cells (inhibition relative to 0)", "value": -2.49, "unit": "%"}, {"measurement": "inhibition at 0.05 µM", "setting": "U937 cells; Homo sapiens, U-937, 50 nM, 48 hr, 10% FCS, read-out: Activity on U937 cells (inhibition relative to 0)", "value": 4.9, "unit": "%"}, {"measurement": "inhibition at 0.1 µM", "setting": "U937 cells; Homo sapiens, U-937, 100 nM, 48 hr, 10% FCS, read-out: Activity on U937 cells (inhibition relative to 0)", "value": 8.16, "unit": "%"}, {"measurement": "inhibition at 0.25 µM", "setting": "U937 cells; Homo sapiens, U-937, 250 nM Asp-Cytarabine administered alone, read-out: inhibition of U937 cells", "value": "< 20", "unit": "%"}, {"measurement": "inhibition at 0.25 µM", "setting": "U937 cells; Homo sapiens, U-937, 250 nM, 48 hr, 10% FCS, read-out: Activity on U937 cells (inhibition relative to 0)", "value": 10.6, "unit": "%"}, {"measurement": "inhibition at 1 µM", "setting": "U937 cells; Homo sapiens, U-937, 1000 nM, 48 hr, 10% FCS, read-out: Activity on U937 cells (inhibition relative to 0)", "value": 62.7, "unit": "%"}, {"measurement": "inhibition at 5 µM", "setting": "U937 cells; Homo sapiens, U-937, 5000 nM, 48 hr, 10% FCS, read-out: Activity on U937 cells (inhibition relative to 0)", "value": 87.2, "unit": "%"}, {"measurement": "IC50", "setting": "[2]", "value": 47, "unit": "nM"}, {"measurement": "Activity on Molt-4 cells (count)", "setting": "Molt-4 cells; 1 nM, 48 hr, 10% FCS", "value": 18778.00}, {"measurement": "Activity on Molt-4 cells (count)", "setting": "Molt-4 cells; 10 nM, 48 hr, 10% FCS", "value": 17759.00}, {"measurement": "Activity on Molt-4 cells (count)", "setting": "Molt-4 cells; 50 nM, 48 hr, 10% FCS", "value": 14258.67}, {"measurement": "Activity on Molt-4 cells (count)", "setting": "Molt-4 cells; 100 nM, 48 hr, 10% FCS", "value": 12006.67}, {"measurement": "Activity on Molt-4 cells (count)", "setting": "Molt-4 cells; 250 nM, 48 hr, 10% FCS", "value": 9572.00}, {"measurement": "Activity on Molt-4 cells (count)", "setting": "Molt-4 cells; 1000 nM, 48 hr, 10% FCS", "value": 3156.33}, {"measurement": "Activity on Molt-4 cells (count)", "setting": "Molt-4 cells; 5000 nM, 48 hr, 10% FCS", "value": 2037.33}, {"measurement": "inhibition at 0.001 µM", "setting": "Molt-4 cells; Homo sapiens, MOLT-4, 1 nM, 48 hr, 10% FCS, read-out: Activity on Molt-4 cells (inhibition relative to 0)", "value": 1.88, "unit": "%"}, {"measurement": "inhibition at 0.01 µM", "setting": "Molt-4 cells; Homo sapiens, MOLT-4, 10 nM Asp-Cytarabine, read-out: inhibition of Molt-4 cells", "value": "< 10", "unit": "%"}, {"measurement": "inhibition at 0.01 µM", "setting": "Molt-4 cells; Homo sapiens, MOLT-4, 10 nM, 48 hr, 10% FCS, read-out: Activity on Molt-4 cells (inhibition relative to 0)", "value": 7.21, "unit": "%"}, {"measurement": "inhibition at 0.05 µM", "setting": "Molt-4 cells; Homo sapiens, MOLT-4, 50 nM, 48 hr, 10% FCS, read-out: Activity on Molt-4 cells (inhibition relative to 0)", "value": 25.5, "unit": "%"}, {"measurement": "inhibition at 0.1 µM", "setting": "Molt-4 cells; Homo sapiens, MOLT-4, 100 nM, 48 hr, 10% FCS, read-out: Activity on Molt-4 cells (inhibition relative to 0)", "value": 37.3, "unit": "%"}, {"measurement": "inhibition at 0.25 µM", "setting": "Molt-4 cells; Homo sapiens, MOLT-4, 250 nM, 48 hr, 10% FCS, read-out: Activity on Molt-4 cells (inhibition relative to 0)", "value": 50, "unit": "%"}, {"measurement": "inhibition at 1 µM", "setting": "Molt-4 cells; Homo sapiens, MOLT-4, 1000 nM, 48 hr, 10% FCS, read-out: Activity on Molt-4 cells (inhibition relative to 0)", "value": 83.5, "unit": "%"}, {"measurement": "inhibition at 5 µM", "setting": "Molt-4 cells; Homo sapiens, MOLT-4, 5000 nM, 48 hr, 10% FCS, read-out: Activity on Molt-4 cells (inhibition relative to 0)", "value": 89.3, "unit": "%"}, {"measurement": "Spleen size / weight compared to the control mice", "setting": "U937 leukemia cells; [4]", "value": "reduced spleen size"}, {"measurement": "Animals that survived until the scheduled sacrifice", "setting": "U937 leukemia cells; first study, s.c. daily Days 16-22, sacrifice on Day 23, BST-236 5 mg/mouse, AZA 6 mg/kg", "value": "4/4"}, {"measurement": "Concentration decline following infusion cessation", "setting": "[3]; Phase I/II studies", "value": "rapidly declined in an apparent biphasic manner"}, {"measurement": "Concentration relative to the peak", "setting": "[3]; at 6-10 hours from the completion of the infusion", "value": "≤ 5 % of the peak"}]}
